Test results published in patent US20230312582A1, “Salts Of Nitrogen-Containing Heterocyclic Compound, And Solid Forms Of Salts, Pharmaceutical Composition And Use Thereof” (Wuhan Humanwell Innovative Drug Research And Development …, priority 2020, published 2023).
Counter-ions that a name gives are not always drawn.

Experiments:
[1] = Hygroscopicity by dynamic vapor sorption (DVS); format: physicochemical; details: for After DVS test Whether the crystal form is changed: 0% RH to 95% RH to 0% RH; for After DVS test Whether the crystal form is changed / Hygroscopicity / Vapor sorption (25° C./80% RH): 25° C.; for Hygroscopicity / Vapor sorption (25° C./80% RH): DVS; for DVS curve vapor sorption: at 0% RH to 80% RH; for Risk evaluation: hygroscopicity evaluation
Experimental: Dynamic vapor sorption (DVS) curves are acquired on a DVS Intrinsic in SMS (Surface Measurement System). The relative humidity at 25° C. is corrected with the deliquescence points of LiCl, Mg(NO3)2 and KCl.
Hygroscopicity of the crystal form A of hydrochloride, the crystal form A of fumarate, the crystal form A of benzenesulfonate and the free base crystal form A prepared repeatedly was evaluated using a dynamic vapor sorption (DVS) instrument. Starting at 0% relative humidity (0% RH), the test acquired the percentage change of mass of the sample when humidity changed (0% RH to 95% RH to 0% RH) at a constant temperature of 25° C.

[2] = Polarizing microscope (PLM) image, particle size; format: physicochemical; details: room temperature
Description: The polarizing microscope data are acquired by an Axio Lab. A1 upright microscope at room temperature.

[3] = Dynamic solubility in water and three biological vehicles; format: physicochemical; details: for Crystal form change: XRPD of solid; for pH: filtrate; for solubility in each system compared with that of the free base crystal form A: water
Experimental: The dynamic solubility of the crystal form A of hydrochloride, the crystal form A of fumarate, the crystal form A of benzenesulfonate and the free base crystal form A prepared repeatedly was evaluated in water and three biological vehicles. […] After centrifugation of the samples at each time point (0.45 μm PTFE filter head), the filtrate was determined for HPLC concentration and pH, and the centrifuged solid samples were tested for XRPD.

Solid stability, 1 week = format: physicochemical; details: for Purity (area %): HPLC; for Crystal form change: XRPD
Experimental: The crystal form A of hydrochloride, the crystal form A of fumarate, the crystal form A of benzenesulfonate and the free base crystal form A prepared repeatedly were placed at 25° C./60% RH and 40° C./75% RH for 1 week, and then the physical and chemical stability of the samples were tested by XRPD and HPLC. […] No significant purity decrease or crystal form transformation occurred in any of the other samples after being placed under 2 conditions for 1 week.

[4] = Stability of crystal form on storage for 6 months; format: physicochemical; details: 40° C./75% RH; 25° C./60% RH; 2° C. to 8° C.; polyethylene bag + aluminum foil bag
Description: (the aluminum foil bag is made of light-proof materials and can be protected from light; and the polyethylene bag and the aluminum foil bag are sealed when being packaged).

[5] = Solid stability evaluation at 60° C. for 24 h; format: physicochemical
Experimental: The crystal form A of benzenesulfonate of the compound of formula (I) was used as a starting sample, and 100 polymorph screening tests under different conditions were set. The screening method comprises the following steps: adding an anti-solvent, slowly volatilizing, slowly cooling, suspending and stirring (room temperature and 50° C.), circularly heating and cooling, gas-solid permeation, gas-liquid diffusion, inducing and grinding a high polymer. From the X-ray powder diffraction (XRPD) results of the isolated solid, only one polymorph of benzenesulfonate, i.e., the starting form A, was found. A partial evaluation was completed in the salt form screening stage, so only solid stability evaluation at 60° C. for 24 h was performed.

[6] = Pharmacokinetic assay (crystal form) in mice; format: in vivo; details: male, ICR, mouse, plasma, oral intragastric administration 10 mg/kg
Experimental: In vivo pharmacokinetic assay in mice was performed, wherein the used mice were 9 male ICR mice weighing 20-25 g and fasted overnight. 9 mice were taken and orally intragastrically administered with 10 mg/kg of the compound. […] Blood samples were centrifuged at 8000 rpm for 6 min at 4° C., and plasma was collected and stored at −20° C. The plasma at each time point was taken and added with 3-5 times of acetonitrile solution containing the internal standard for mixing, and the mixed solution was subjected to vortex mixing for 1 min, and centrifuging at 4° C. for 10 min at 13000 rpm. The supernatant was taken and added with 3 times of water for mixing. A proper amount of the mixed solution was taken for LC-MS/MS analysis. The major pharmacokinetic parameters were analyzed using WinNonlin 7.0 software and a non-compartmental model.

[7] = SGF, 4 h, listed as Benzenesulfonate Crystal form
[8] = SGF, 24 h, listed as Benzenesulfonate Crystal form
[9] = listed as crystal form A of hydrochloride

C[C@H](Cc1cnn[nH]1)OCC(=O)N1Cc2cnc(NC3Cc4ccccc4C3)nc2C1 [Crystal form A of benzenesulfonate]
After DVS test Whether the crystal form is changed [1]: No | Hygroscopicity [1]: Slightly | Vapor sorption (25° C./80% RH) [1]: 1.45% | DVS curve vapor sorption [1]: less than 1.46% | Risk evaluation [1]: None | particle size [2]: less than 50 μm | Crystal form change ([3]; SGF, 1 h): No | Crystal form change [3, 7]: Clear | Crystal form change [3, 8]: Clear | pH ([3]; FaSSIF, 1 h, listed as Benzenesulfonate Crystal form): 6.0 | pH ([3]; FaSSIF, 4 h, listed as Benzenesulfonate Crystal form): 6.0 | pH ([3]; FaSSIF, 24 h, listed as Benzenesulfonate Crystal form): 6.0 | pH ([3]; FeSSIF, 1 h, listed as Benzenesulfonate Crystal form): 5.0 | pH ([3]; FeSSIF, 4 h, listed as Benzenesulfonate Crystal form): 5.0 | pH ([3]; FeSSIF, 24 h, listed as Benzenesulfonate Crystal form): 5.0 | pH ([3]; H2O, 1 h, listed as Benzenesulfonate Crystal form): 2.5 | pH ([3]; H2O, 4 h, listed as Benzenesulfonate Crystal form): 2.5 | pH ([3]; H2O, 24 h, listed as Benzenesulfonate Crystal form): 2.5 | pH ([3]; SGF, 1 h, listed as Benzenesulfonate Crystal form): 1.9 | pH [3, 7]: 1.9 | pH [3, 8]: 1.9 | solubility in each system compared with that of the free base crystal form A ([3]; SGF, FaSSIF, FeSSIF): significantly improved | Purity/initial purity (%) (Solid stability, 1 week; 25° C./60% RH): 100.0% | Purity (area %) (Solid stability, 1 week; 25° C./60% RH): 99.35 area % | Crystal form change (Solid stability, 1 week; 25° C./60% RH): No | Purity/initial purity (%) (Solid stability, 1 week; 40° C./75% RH): 99.9% | Purity (area %) (Solid stability, 1 week; 40° C./75% RH): 99.20 area % | Crystal form change (Solid stability, 1 week; 40° C./75% RH): No | crystal form after being stored for 6 months [4]: unchanged | stability after being stored for 6 months [4]: excellent stability | Purity (area %) [5]: 98.23 area % | Purity/initial purity (%) [5]: 100.0% | Crystal form change ([5]; XRPD): No | AUC(0-t) [6]: 7430 ng·h/mL | Cmax [6]: 6600 ng/mL | Tmax [6]: 30 min | half-life [6]: 71.4 min

C[C@H](Cc1cnn[nH]1)OCC(=O)N1Cc2cnc(NC3Cc4ccccc4C3)nc2C1 [Crystal form A of hydrochloride]
After DVS test Whether the crystal form is changed [1]: Yes* | After DVS test Whether the crystal form is changed [1, 9]: changed crystal form | Hygroscopicity [1]: Moderately | Vapor sorption (25° C./80% RH) [1]: 3.85% | Hygroscopicity [1, 9]: had hygroscopicity | DVS curve vapor sorption [1]: less than 3.85% | Risk evaluation [1]: Significantly increased | particle size [2]: less than 50 μm | pH ([3]; FaSSIF, 1 h): 5.7 | pH ([3]; FaSSIF, 4 h): 5.5 | pH ([3]; FaSSIF, 24 h): 5.2 | pH ([3]; FeSSIF, 1 h): 4.9 | pH ([3]; FeSSIF, 4 h): 4.9 | pH ([3]; FeSSIF, 24 h): 4.9 | pH ([3]; H2O, 1 h): 2.3 | pH ([3]; H2O, 4 h): 2.2 | pH ([3]; H2O, 24 h): 2.3 | pH ([3]; SGF, 1 h): 1.8 | pH ([3]; SGF, 4 h): 1.8 | pH ([3]; SGF, 24 h): 1.9 | solubility in each system compared with that of the free base crystal form A ([3]; SGF, FaSSIF, FeSSIF): significantly improved | Purity/initial purity (%) (Solid stability, 1 week; 25° C./60% RH): 99.5% | Purity (area %) (Solid stability, 1 week; 25° C./60% RH): 96.68 area % | Crystal form change (Solid stability, 1 week; 25° C./60% RH): No | Purity/initial purity (%) (Solid stability, 1 week; 40° C./75% RH): 79.9% | XRPD crystallinity (Solid stability, 1 week; 40° C./75% RH): decreased | Purity (area %) (Solid stability, 1 week; 40° C./75% RH): 77.67 area % | Crystal form change (Solid stability, 1 week; 40° C./75% RH): No*
